In patent US5792767A, “Bicyclic substituted hexahydrobenz [e] isoindole alpha-1 adrenergic antagonists” (priority 1995, dated 1998):
Where a name gives a salt, the structure may show the parent alone.

biological target: T1, α-1A adrenoceptor (dog prostate); assay: Functional antagonism of phenylephrine-induced contraction of canine prostate strips; format: cell-based, dog (canine); details: vs phenylephrine-induced contraction, Schild plot; read-out: pA2 Dog Prostate [α-1A] (converted)
T1 construct: from tissue; host or cells: canine prostate strips
From the text: Canine prostate strips were used in vitro as previously described (Hieble, J. P., Boyce, A. J. and Caine, M., Fed. Proc., 45: 2609-2614 (1986)), to determine antagonist potencies against phenylephrine-induced contractions.
Functional assays indicative of pharmacologically defined α-1 adrenoceptors were used to further characterize compounds. Inhibition of phenylephrine (PE)-induced contraction of canine prostate smooth muscle can be correlated with α-1A adrenoceptor activation. […] For each of these models, agonist dose response curves were repeated against increasing concentrations of test agent to derive a Schild plot [log ([…]) against log (molarity of test agent)] to determine the pA2.

T1 sequence (P35348 whole entry): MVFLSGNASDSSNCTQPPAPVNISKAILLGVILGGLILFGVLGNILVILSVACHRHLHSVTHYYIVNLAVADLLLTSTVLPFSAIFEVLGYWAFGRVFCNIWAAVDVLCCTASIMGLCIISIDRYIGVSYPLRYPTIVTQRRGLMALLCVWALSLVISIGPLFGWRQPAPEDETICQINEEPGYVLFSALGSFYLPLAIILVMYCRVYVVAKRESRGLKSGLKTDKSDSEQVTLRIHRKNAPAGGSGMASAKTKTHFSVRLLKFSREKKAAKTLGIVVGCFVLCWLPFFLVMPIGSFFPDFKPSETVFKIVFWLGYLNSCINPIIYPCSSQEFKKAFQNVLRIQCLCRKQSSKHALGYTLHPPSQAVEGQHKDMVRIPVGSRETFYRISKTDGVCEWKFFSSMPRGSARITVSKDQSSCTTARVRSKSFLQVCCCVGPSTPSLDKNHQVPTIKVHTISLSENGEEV

Structure (SMILES) | Kb [nM]
COc1cccc2c1CC[C@H]1CN(CCn3c(=O)[nH]c4scc(C)c4c3=O)C[C@@H]21 (relative stereo) [Example 4, hydrochloride] | 12.3
COc1cccc2c1CC[C@H]1CN(CCn3c(=O)[nH]c4cc(Cl)ccc4c3=O)C[C@@H]21 (relative stereo) [Example 11, hydrochloride] | 1.2
COC(=O)c1ccc2c(=O)n(CCN3C[C@@H]4CCc5c(OC)cccc5[C@@H]4C3)c(=O)[nH]c2c1 (relative stereo) [Example 14, hydrochloride] | 0.977
COc1cccc2c1CC[C@H]1CN(CCn3c(=O)[nH]c4ccc(F)cc4c3=O)C[C@@H]21 (relative stereo) [Example 15, 3-[2-(cis-6-Methoxy-2,3,3a,4,5,9b-hexahydro-[1H]-benz[e]isoindol-1-yl)ethyl]-6-fluoro-quinazoline-2,4(1H,3H)-dione hydrochloride] | 5.37
COc1cccc2c1CC[C@H]1CN(CCn3c(=O)[nH]c4c(OC)c(OC)c(OC)cc4c3=O)C[C@@H]21 (relative stereo) [Example 18, 3-[2-(cis-6-Methoxy-2,3,3a,4,5,9b-hexahydro-[1H]-benz[e]isoindol-1-yl)ethyl]-6,7,8-trimethoxy-quinazoline-2,4(1H,3H)-dione hydrochloride] | 4.17
COc1cccc2c1CC[C@H]1CN(CCn3c(=O)[nH]c4c(C)cccc4c3=O)C[C@@H]21 (relative stereo) [Example 19, hydrochloride] | 5.01
COc1cccc2c1CC[C@H]1CN(CCn3c(=O)[nH]c4cccnc4c3=O)C[C@@H]21 (relative stereo) [Example 22, hydrochloride] | 1.51
COc1cccc2c1CC[C@H]1CN(CCn3c(=O)[nH]c4cccc(Cl)c4c3=O)C[C@@H]21 (relative stereo) [Example 23, hydrochloride] | 4.79
COc1cccc2c1CC[C@H]1CN(CCn3c(=O)[nH]c4cnccc4c3=O)C[C@@H]21 (relative stereo) [Example 24, dihydrochloride] | 1.29
COc1cccc2c1CC[C@H]1CN(CCn3c(=O)[nH]c4cc(F)ccc4c3=O)C[C@@H]21 (relative stereo) [Example 25, 3-[2-(cis-6-Methoxy-2,3,3a,4,5,9b-hexahydro-[1H]-benz[e]isoindol-1-yl)ethyl]-7-fluoro-quinazoline-2,4(1H,3H)-dione hydrochloride] | 0.676
COc1cccc2c1CC[C@H]1CN(CCn3c(=O)c4ccccc4n(C)c3=O)C[C@@H]21 (relative stereo) [Example 26, hydrochloride] | 0.589
COc1cccc2c1CC[C@H]1CN(CCn3c(=O)[nH]c4c(cnn4C)c3=O)C[C@@H]21 (relative stereo) [Example 28, hydrochloride] | 4.79
COc1cccc2c1CC[C@H]1CN(CCn3c(=O)[nH]c4cc(-c5ccccc5)sc4c3=O)C[C@@H]21 (relative stereo) [Example 32, hydrochloride] | 33.9
COc1cccc2c1CC[C@H]1CN(CCn3cnc4ccccc4c3=O)C[C@@H]21 (relative stereo) [Example 34, dihydrochloride] | 1.05
O=c1[nH]c2sccc2c(=O)n1CCN1C[C@@H]2CCc3c(O)cccc3[C@@H]2C1 (relative stereo) [Example 35, hydrobromide] | 87.1
COc1cccc2c1CC[C@H]1CN(CCn3c(=O)[nH]c4cc5c(cc4c3=O)OCO5)C[C@@H]21 [Example 37, hydrochloride] | 0.24
COc1cccc2c1CC[C@H]1CN(CCn3c(=O)[nH]c4cc5c(cc4c3=O)OCCO5)C[C@@H]21 [Example 38, hydrochloride] | 0.229
COc1ccc2c(=O)n(CCN3C[C@@H]4CCc5c(OC)cccc5[C@@H]4C3)c(=O)n(C)c2c1 [Example 50, hydrochloride] | 0.631
COc1cc2c(cc1Cl)c(=O)n(CCN1C[C@@H]3CCc4c(OC)cccc4[C@@H]3C1)c(=O)n2C [Example 51, hydrochloride] | 14.1
COc1cccc2c1CC[C@H]1CN(CCn3c(=O)[nH]c4c5c(ccc4c3=O)OCO5)C[C@@H]21 [Example 54, hydrochloride] | 0.891

Other lines, results leading:

Kb [nM] | Structure (SMILES)
47.9 | COc1cccc2c1CC[C@H]1CN(CCn3c(=O)[nH]c4scc(-c5ccccc5)c4c3=O)C[C@@H]21 (relative stereo) [Example 6, hydrochloride]
24 | COc1cccc2c1CC[C@H]1CN(CCn3c(=O)[nH]c4sc(-c5ccccc5)cc4c3=O)C[C@@H]21 (relative stereo) [Example 7, 3-[2-(cis-6-Methoxy-2,3,3a,4,5,9b-hexahydro-[1H]-benz[e]isoindol-1-yl)ethyl]-6-phenyl-thieno[2,3-d]pyrimidine-2,4(1H,3H)-dione hydrochloride]
12.3 | COc1cccc2c1CC[C@H]1CN(CCn3c(=O)[nH]c4ccc([N+](=O)[O-])cc4c3=O)C[C@@H]21 (relative stereo) [Example 16, hydrochloride]
1.15 | COc1ccc2[nH]c(=O)n(CCN3C[C@@H]4CCc5c(OC)cccc5[C@@H]4C3)c(=O)c2c1 (relative stereo) [Example 17, hydrochloride]
1.48 | COc1cccc2c1CC[C@H]1CN(CCn3c(=O)[nH]c4c(C)cc(C)cc4c3=O)C[C@@H]21 (relative stereo) [Example 20, hydrochloride]
13.2 | COc1cccc2c1CC[C@H]1CN(CCn3c(=O)[nH]c4ncccc4c3=O)C[C@@H]21 (relative stereo) [Example 21, 3-[2-(cis-6-Methoxy-2,3 3a,4,5,9b-hexahydro-[1H]-benz[e]isoindol-1-yl)ethyl]-pyrido[2,3-d]pyrimidine-2,4(1H,3H)-dione hydrochloride]
2.34 | COc1cccc2c1CC[C@H]1CN(CCn3c(=O)[nH]c4ccncc4c3=O)C[C@@H]21 (relative stereo) [Example 27, dihydrochloride]
1.23 | COc1cccc2c1CC[C@H]1CN(CCn3c(=O)[nH]c4sc(C)cc4c3=O)C[C@@H]21 (relative stereo) [Example 29, hydrochloride]
1.15 | COc1cccc2c1CC[C@H]1CN(CCn3c(=O)[nH]c4[nH]ccc4c3=O)C[C@@H]21 (relative stereo) [Example 30]
5.37 | COc1cccc2c1CC[C@H]1CN(CCN3Cc4ccccc4NC3=O)C[C@@H]21 [Example 44, hydrochloride]
0.575 | COc1cccc2c1CC[C@H]1CN(CCn3c(=O)[nH]c4cc(C(N)=O)ccc4c3=O)C[C@@H]21 [Example 46, hydrochloride]
1.62 | COc1cccc2c1CC[C@H]1CN(CCn3c(=O)[nH]c4cc(C(=O)N(C)C)ccc4c3=O)C[C@@H]21 [Example 47, 3-[2-((3aR ,9bR)-cis-6-Methoxy-2,3,3a,4,5,9b-hexahydro-[1H]-benz[e]isoindol-1-yl)ethyl]-7-(N,N'-dimethyl)carbamylguinazoline-2,4(1H,3H)-dione hydrochloride]
6.46 | COc1cccc2c1CC[C@H]1CN(CCn3c(=O)[nH]c4c(Cl)c(OC)c(Cl)cc4c3=O)C[C@@H]21 [Example 48, hydrochloride]
12 | COc1cc2c(=O)n(CCN3C[C@@H]4CCc5c(OC)cccc5[C@@H]4C3)c(=O)[nH]c2cc1Cl [Example 49, hydrochloride]
1.95 | COc1cccc2c1CC[C@H]1CN(CCn3c(=O)[nH]c4ccc5c(c4c3=O)OCO5)C[C@@H]21 [Example 53, hydrochloride]
